Experimental data: publication PMC7619385 (ACS infectious diseases, 2025)
Counter-ions that a name gives are not always drawn. Like-named read-outs stand apart in the source and are kept apart here.

Target: T1, LmxCLK1 (Leishmania mexicana, UniProt E9AMP2)
T1 sequence (E9AMP2 1-422): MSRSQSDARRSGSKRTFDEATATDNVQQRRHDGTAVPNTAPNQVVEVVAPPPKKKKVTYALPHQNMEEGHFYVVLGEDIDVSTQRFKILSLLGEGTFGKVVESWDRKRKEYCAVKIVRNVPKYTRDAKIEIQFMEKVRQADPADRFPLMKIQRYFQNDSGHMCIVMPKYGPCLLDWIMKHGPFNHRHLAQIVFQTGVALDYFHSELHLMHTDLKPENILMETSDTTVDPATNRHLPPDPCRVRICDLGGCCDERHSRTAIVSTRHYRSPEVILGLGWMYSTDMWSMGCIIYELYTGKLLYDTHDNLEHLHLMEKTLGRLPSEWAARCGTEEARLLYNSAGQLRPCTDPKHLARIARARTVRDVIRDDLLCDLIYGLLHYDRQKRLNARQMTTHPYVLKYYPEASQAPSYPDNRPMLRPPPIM
Assay: biochemical
Type: binding

[1] = DSF, 10 µM compound, 2 µM LmxCLK1, Run 1, read-out: ΔTm Run 1
[2] = DSF, 10 µM compound, 2 µM LmxCLK1, Run 2, read-out: ΔTm Run 2
[3] = DSF, 10 µM compound, 2 µM LmxCLK1, mean of two runs, read-out: ΔTm Average
[4] = DSF, 10 µM compound, 2 µM LmxCLK1, Run 1
[5] = DSF, 10 µM compound, 2 µM LmxCLK1, Run 2
[6] = DSF, 10 µM compound, 2 µM LmxCLK1, mean of two runs

| Molecule | ΔTm at 10 µM [1] [°C] | ΔTm at 10 µM [2] [°C] | ΔTm at 10 µM [3] [°C] | ΔTm Run 1 [4] [°C] | ΔTm Run 2 [5] [°C] | ΔTm Average [6] [°C] | also measured |
| --- | --- | --- | --- | --- | --- | --- | --- |
| CCn1c(-c2nonc2N)nc2c(C#CC(C)(C)O)ncc(OC[C@H]3CCCNC3)c21 [GSK690693] | 0.1 | -0.3 | -0.1 | – | – | – | – |
| Cc1cc(F)c(Nc2ncnc3cc(OCc4ccccc4)ccc23)cc1O.Cl [ZM 323881 HCl] | – | – | – | 0.1 | 0.0 | 0.0 | – |
| CNC(=O)c1c(F)cccc1Nc1nc(Nc2cc3c(cc2OC)CCN3C(=O)CN(C)C)nc2[nH]ccc12 [GSK1838705A] | – | – | – | – | – | – | ΔTm Average: -0.2; ΔTm Run 1: -0.1; ΔTm Run 2: -0.3 |
| CS(=O)(=O)N1CCN(Cc2cc3nc(-c4cccc5[nH]ncc45)nc(N4CCOCC4)c3s2)CC1 [GDC-0941] | 0.1 | 0 | 0.1 | – | – | – | – |
| Cn1cc(-c2cnn3c(N)c(Br)c([C@@H]4CCCNC4)nc23)cn1 [MK-8776 (SCH 900776)] | – | – | – | – | – | – | ΔTm Average: 0.3 °C; ΔTm Run 1: 0.5 °C; ΔTm Run 2: 0 °C |
| O=C(NC(NC(=S)Nc1ccc(F)c([N+](=O)[O-])c1)C(Cl)(Cl)Cl)C(c1ccccc1)c1ccccc1 (stereo not drawn) [CGK 733] | – | – | – | -0.6 | 0.0 | -0.3 | – |
| Nc1nccc(Oc2ccc(NC(=O)c3c[nH]cc(-c4ccc(F)cc4)c3=O)cc2F)c1Cl [BMS-794833] | -0.1 | -0.4 | -0.3 | – | – | – | – |
| O=c1cc(N2CCOCC2)oc2c(-c3ccccc3)cccc12 [LY294002] | 0.5 | 0.2 | 0.3 | – | – | – | – |
| COc1cc2c(N3CCN(C(=O)Nc4ccc(OC(C)C)cc4)CC3)ncnc2cc1OCCCN1CCCCC1 [Tandutinib (MLN518)] | – | – | – | 0.1 | -0.1 | 0.0 | – |
| O=C(Nc1cccc(Cl)c1)Nc1ncc(CCNc2ncnc3ccsc23)s1 [SNS-314 Mesylate] | 3.6 | 8.3 | 5.9 | – | – | – | – |
| COc1ccc(COc2cc3oc(=O)c4cc(C(C)O)ccc4c3cc2OC)cc1 (stereo not drawn) [Palomid 529 (P529)] | – | – | – | 0.3 | -0.1 | 0.1 | – |
| Cc1ccc(Nc2nccc(N(C)c3ccc4c(C)n(C)nc4c3)n2)cc1S(N)(=O)=O [Pazopanib] | 0.1 | -0.4 | -0.2 | – | – | – | – |
| COc1cc(OC)c(/C=C/S(=O)(=O)Cc2ccc(OC)c(NCC(=O)O)c2)c(OC)c1 [Rigosertib (ON-01910)] | – | – | – | -0.2 | -0.4 | -0.3 | – |
| Cn1cc(-c2ccc3nnc(C(F)(F)c4ccc5ncccc5c4)n3n2)cn1 [JNJ-38877605] | – | – | – | – | – | – | ΔTm Average: -0.3; ΔTm Run 1: -0.1; ΔTm Run 2: -0.4 |
| N#Cc1c(NC(=O)c2cccc3ccccc23)sc2c1CCCC2 [JNK Inhibitor IX] | – | – | – | 0.3 | -0.1 | 0.1 | – |
| COc1ccc(C(=O)Nc2sc3c(c2C(N)=O)CCCC3)cc1OC [TCS 359] | – | – | – | 0.0 | 0.0 | 0.0 | – |
| Cc1c(NC(=O)c2ccc(C(C)(C)C)cc2)cccc1-c1cn(C)c(=O)c(Nc2ccc(C(=O)N3CCOCC3)cc2)n1 [CGI1746] | 0 | -0.4 | -0.2 | – | – | – | – |
| CNC(=O)c1cc(Oc2ccc(NC(=O)Nc3cc(C(C)(C)C)nn3-c3ccc4ncccc4c3)c(F)c2)ccn1 [DCC-2036 (Rebastinib)] | – | – | – | -0.2 | -0.4 | -0.3 | – |
| CO[C@H]1C[C@@H]2CC[C@@H](C)[C@@](O)(O2)C(=O)C(=O)N2CCCC[C@H]2C(=O)O[C@H]([C@H](C)C[C@@H]2CC[C@@H](OCCO)[C@H](OC)C2)CC(=O)[C@H](C)/C=C(\C)[C@@H](O)[C@@H](OC)C(=O)[C@H](C)C[C@H](C)/C=C/C=C/C=C/1C [Everolimus (RAD001)] | – | – | – | 0.2 | -0.2 | 0.0 | – |
| CCCNC(=O)Nc1ccc(Oc2ncnc3cc(OC)c(OC)cc23)cc1Cl [KRN 633] | 0.1 | -0.1 | 0 | – | – | – | – |

| Molecule | ΔTm at 10 µM [1] [°C] | ΔTm at 10 µM [2] [°C] | ΔTm at 10 µM [3] [°C] | ΔTm Run 1 [4] [°C] | ΔTm Run 2 [5] [°C] | ΔTm Average [6] [°C] | also measured |
| --- | --- | --- | --- | --- | --- | --- | --- |
| Cc1nc(Nc2[nH]nc3c2CN(C(=O)N[C@H](CN(C)C)c2ccccc2)C3(C)C)c2sccc2n1 [PF-3758309] | 0.7 | 0.5 | 0.6 | – | – | – | – |
| Cn1cc(-c2ccc3ncc(Cc4ccc5ncccc5c4)n3n2)cn1 [NVP-BVU972] | – | – | – | 0.3 | 0.0 | 0.2 | – |
| CCCS(=O)(=O)Nc1ccc(F)c(C(=O)c2c[nH]c3ncc(Cl)cc23)c1F [PLX-4720] | -0.3 | -0.1 | -0.2 | – | – | – | – |
| Cc1cc(C)nc(NS(=O)(=O)c2ccc(NC(=S)NC(=O)COc3ccc(Br)cc3Cl)cc2)n1 [ZCL278] | – | – | – | 0.1 | -0.1 | 0.0 | – |
| CNC(=O)c1ccccc1Sc1ccc2c(/C=C/c3ccccn3)n[nH]c2c1 [Axitinib] | 0.6 | 0.4 | 0.5 | – | – | – | – |
| FC(F)(F)c1ccc(/C=C/c2nc(COc3ccc(CCCCn4ccnn4)cc3)co2)cc1 [Mubritinib (TAK 165)] | – | – | – | – | – | – | ΔTm Average: 0.2 °C; ΔTm Run 1: 0.4 °C; ΔTm Run 2: 0 °C |
| COc1ncc(-c2ccc3nccc(-c4ccnnc4)c3c2)cc1NS(=O)(=O)c1ccc(F)cc1F [GSK2126458 (GSK458)] | – | – | – | -0.2 | -0.3 | -0.3 | – |
| O=c1cc(N2CCOCC2)oc2c(-c3cccc4c3sc3ccccc34)cccc12 [NU7441 (KU-57788)] | – | – | – | 0.0 | -0.2 | -0.1 | – |
| COc1cc2nccc(Oc3ccc(NC(=O)NC4CC4)c(Cl)c3)c2cc1C(N)=O [Lenvatinib (E7080)] | – | – | – | -0.1 | -0.4 | -0.3 | – |
| O=C1NCCc2[nH]c(-c3ccncc3)cc21 [PHA-767491] | – | – | – | 0.7 | 1.3 | 1.0 | – |
| CCN1CCN(Cc2ccc(-c3cc4c(N[C@H](C)c5ccccc5)ncnc4[nH]3)cc2)CC1 [AEE788 (NVP-AEE788)] | – | – | – | 0.2 | 0.3 | 0.3 | – |
| C=CCc1ccc(O)c(-c2ccc(O)c(CC=C)c2)c1 [Honokiol] | -0.2 | 0.2 | 0 | – | – | – | – |
| Oc1cc(O)cc(/C=C/c2ccc(O)c(O)c2)c1 [Piceatannol] | 0 | 0.1 | 0.1 | – | – | – | – |
| Cc1ncc(-c2ccnc(Nc3ccc(S(C)(=O)=O)cc3)n2)n1C(C)C [AZD5438] | 1.2 | 0.8 | 1 | – | – | – | – |
| O=c1c(O)c(-c2ccc(O)c(O)c2)oc2cc(O)cc(O)c12 [Quercetin] | 0.5 | 0.6 | 0.5 | – | – | – | – |
| OCCn1cc(-c2ccc3c(c2)CC/C3=N\O)c(-c2ccncc2)n1 [GDC-0879] | 0 | -0.2 | -0.1 | – | – | – | – |
| HER2-Inhibitor-1 | – | – | – | 0.2 | -0.1 | 0.1 | – |
| CN(c1ncccc1CNc1nc(Nc2ccc3c(c2)CC(=O)N3)ncc1C(F)(F)F)S(C)(=O)=O [PF-562271] | – | – | – | 0.3 | -0.1 | 0.1 | – |
| COC(=O)Nc1ccc(-c2nc(N3CCOCC3)c3cnn(C4CCN(C(=O)OC)CC4)c3n2)cc1 [WYE-354] | – | – | – | -0.1 | -0.2 | -0.1 | – |
